Test results as given in ChEMBL document CHEMBL1201862, “PubChem BioAssay data set” (2004).
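Method: 48-hour compound exposure of cells in 96-well plates, five concentrations, linear interpolation of endpoints. GI50 marks 50% less growth.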 Active and inactive are the calls of the source. Cut-off read from the data, not from the text of the source: active = GI50 up to about 1.1 µM and inactive = higher.

Columns and labels:
Assay in all cases: inhibition of tumour cell growth, NCI panel, 48 h
CAKI-1 = system: CAKI-1
COLO 205 = system: COLO 205
HT-29 = system: HT-29
Hs-578T = system: Hs-578T
LOX IMVI = system: LOX IMVI
MCF7 = system: MCF7
MOLT-4 = system: MOLT-4
Malme-3M = system: Malme-3M
NCI-H226 = system: NCI-H226
NCI-H522 = system: NCI-H522
OVCAR-5 = system: OVCAR-5
OVCAR-8 = system: OVCAR-8
SF-268 = system: SF-268
SK-MEL-5 = system: SK-MEL-5
SN12C = system: SN12C
SNB-19 = system: SNB-19
U-251 = system: U-251
UO-31 = system: UO-31
SR = system: SR

| SMILES | GI50 (CAKI-1) | GI50 (COLO 205) | GI50 (HT-29) | GI50 (Hs-578T) | GI50 (LOX IMVI) | GI50 (MCF7) | GI50 (MOLT-4) | GI50 (Malme-3M) | GI50 (NCI-H226) | GI50 (NCI-H522) | GI50 (OVCAR-5) | GI50 (OVCAR-8) | GI50 (SF-268) | GI50 (SK-MEL-5) | GI50 (SN12C) | GI50 (SNB-19) | GI50 (U-251) | GI50 (UO-31) | GI50 (SR) |
| --- | --- | --- | --- | --- | --- | --- | --- | --- | --- | --- | --- | --- | --- | --- | --- | --- | --- | --- | --- |
| O=C1N/C(=N/N=C/c2c[nH]c3ccccc23)N/C1=C\c1cccs1 | > 100 µM (inactive) | > 100 µM (inactive) | 52.2 µM (inactive) | > 100 µM (inactive) | 56.9 µM (inactive) | 41.4 µM (inactive) | > 100 µM (inactive) | 61.8 µM (inactive) | > 100 µM (inactive) | > 100 µM (inactive) | > 100 µM (inactive) | > 100 µM (inactive) | > 100 µM (inactive) | 70.3 µM (inactive) | > 100 µM (inactive) | 14.8 µM (inactive) | 36.2 µM (inactive) | > 100 µM (inactive) |  |
| CNS(=O)(=O)NN(C)S(=O)(=O)c1ccc(F)cc1 | > 100 µM (inactive) | > 100 µM (inactive) | > 100 µM (inactive) |  | 90.2 µM (inactive) |  | > 100 µM (inactive) | > 100 µM (inactive) | > 100 µM (inactive) | > 100 µM (inactive) | > 100 µM (inactive) | > 100 µM (inactive) | > 100 µM (inactive) | > 100 µM (inactive) | > 100 µM (inactive) | > 100 µM (inactive) | > 100 µM (inactive) | > 100 µM (inactive) |  |
| CCSc1nc(N/N=C/c2cccs2)c2cnn(CO)c2n1 | 2.66 µM (inactive) | 4.73 µM (inactive) | 3.85 µM (inactive) | 4.31 µM (inactive) |  | 3.59 µM (inactive) |  | 13.8 µM (inactive) | 3.1 µM (inactive) | 3.71 µM (inactive) | 13.4 µM (inactive) | 4.16 µM (inactive) | 6.22 µM (inactive) | 3.46 µM (inactive) | 6.44 µM (inactive) | 10.8 µM (inactive) | 6.85 µM (inactive) | 2.81 µM (inactive) | 5.9 µM (inactive) |
| Nc1ccc(Sc2nnc(N)s2)cc1 |  | > 100 µM (inactive) |  | > 100 µM (inactive) |  | > 100 µM (inactive) | > 100 µM (inactive) |  |  | > 100 µM (inactive) | > 100 µM (inactive) | > 100 µM (inactive) | > 100 µM (inactive) | > 100 µM (inactive) | > 100 µM (inactive) | > 100 µM (inactive) | > 100 µM (inactive) | > 100 µM (inactive) | > 100 µM (inactive) |
| CN(CCCNc1ccc2ncn3c4ccccc4c(=O)c1c23)CCCN1C(=O)c2cccc3cc([N+](=O)[O-])cc(c23)C1=O | 0.029 µM (active) | 0.00815 µM (active) | 0.00149 µM (active) | 0.0879 µM (active) | 0.00771 µM (active) | 0.00541 µM (active) | 0.00565 µM (active) | 0.0244 µM (active) | 0.00603 µM (active) | 0.00775 µM (active) | 1.14 µM (inactive) | 0.0205 µM (active) | 0.0247 µM (active) | 0.01 µM (active) | 0.0125 µM (active) | 0.0401 µM (active) | 0.00966 µM (active) | 0.015 µM (active) | 0.001 µM (active) |
| COC(=O)C1=C(C(=O)OC)C2(C)C=CC1O2 (centres undefined) |  | 4.22 µM (inactive) | 15.2 µM (inactive) | 26.4 µM (inactive) | 16.7 µM (inactive) | 31.5 µM (inactive) |  | 2.92 µM (inactive) | 19.6 µM (inactive) | 2 µM (inactive) | 17.6 µM (inactive) | 17.4 µM (inactive) | 31 µM (inactive) | 18.5 µM (inactive) | 17.5 µM (inactive) | > 100 µM (inactive) | 18 µM (inactive) | 4.51 µM (inactive) |  |
| CNC1=C(C)C(=O)C2=C(C1=O)C(COC(N)=O)C1(OC)C3NC3CN21 (centres undefined) | 0.0653 µM (active) | 0.187 µM (active) | 0.207 µM (active) | 2.49 µM (inactive) | 0.152 µM (active) | 0.107 µM (active) | 3.68 µM (inactive) | 0.571 µM (active) | 0.543 µM (active) | 0.427 µM (active) | 4.91 µM (inactive) | 0.644 µM (active) | 0.783 µM (active) | 0.0445 µM (active) |  | 0.268 µM (active) | 0.883 µM (active) | 2.19 µM (inactive) | 0.0462 µM (active) |
| Oc1ccc2ccccc2c1/N=N/c1cccc2ccccc12 | > 100 µM (inactive) | > 100 µM (inactive) |  | 21.1 µM (inactive) |  | > 100 µM (inactive) | > 100 µM (inactive) | 91.6 µM (inactive) | > 100 µM (inactive) | 52.4 µM (inactive) | > 100 µM (inactive) | 44.1 µM (inactive) | 55.5 µM (inactive) | > 100 µM (inactive) | > 100 µM (inactive) | 47.6 µM (inactive) | 50.6 µM (inactive) | > 100 µM (inactive) | > 100 µM (inactive) |
| O=C1Sc2ccccc2/C1=N/Nc1ccccc1[N+](=O)[O-] | 77.3 µM (inactive) | > 100 µM (inactive) | > 100 µM (inactive) | 36.1 µM (inactive) | > 100 µM (inactive) | 17 µM (inactive) | > 100 µM (inactive) | 94.8 µM (inactive) | > 100 µM (inactive) | > 100 µM (inactive) | > 100 µM (inactive) | 56.4 µM (inactive) | 36.6 µM (inactive) | 65.2 µM (inactive) |  | > 100 µM (inactive) | > 100 µM (inactive) | > 100 µM (inactive) | > 100 µM (inactive) |
| O=C1C(=O)c2ccccc2C=C1[N+](=O)[O-] | 87.9 µM (inactive) | > 100 µM (inactive) | > 100 µM (inactive) | 57.1 µM (inactive) | 25.8 µM (inactive) | 22.9 µM (inactive) | 29.3 µM (inactive) |  | > 100 µM (inactive) | 34.9 µM (inactive) | > 100 µM (inactive) | 33.7 µM (inactive) | 38.3 µM (inactive) | 17 µM (inactive) | 29.4 µM (inactive) | > 100 µM (inactive) | 40.1 µM (inactive) | > 100 µM (inactive) | 29.4 µM (inactive) |
| O=C1CNc2cc(N3CCCCC3)ccc2N1 |  |  | 8.32 µM (inactive) | 4.43 µM (inactive) |  | > 100 µM (inactive) | > 100 µM (inactive) | > 100 µM (inactive) | 16.3 µM (inactive) | > 100 µM (inactive) | > 100 µM (inactive) | > 100 µM (inactive) |  | 43.8 µM (inactive) | > 100 µM (inactive) | > 100 µM (inactive) | > 100 µM (inactive) | > 100 µM (inactive) | 74.6 µM (inactive) |
| COc1cc(O)cc(/C=C/c2ccc(O)cc2)c1 | 33.7 µM (inactive) | > 100 µM (inactive) | 40.4 µM (inactive) | 44.7 µM (inactive) |  | 49.2 µM (inactive) | 36 µM (inactive) | 32.6 µM (inactive) | 24.7 µM (inactive) | 30.1 µM (inactive) | > 100 µM (inactive) | 23.8 µM (inactive) | 49.1 µM (inactive) | 30.7 µM (inactive) | 27.5 µM (inactive) | 36.6 µM (inactive) | 22.4 µM (inactive) | 39.1 µM (inactive) | 42 µM (inactive) |
